From ChEMBL document CHEMBL1153640, “Selective naphthalene H(3) receptor inverse agonists with reduced potential to induce phospholipidosis and their quinoline analogs” (Bioorg Med Chem Lett, 2009) come the findings set out here.

Data set [1] is described as follows: Dissociation constant, pKa of the compound. Type of data set: physicochemical.
The target in data set [2] is T1, Histamine H3 receptor (Homo sapiens, UniProt Q9Y5N1). The data set is described as follows: Inhibition of human histamine H3 expressed in CHO cells by saturation binding experiment. In kind it is cell-based.
Data set [3] is described as follows: Lipophilicity, log D at pH 7.4. Type of data set: physicochemical. Conditions: buffer; call rule not given here.
The target of data set [4] is Cytochrome P450 2D6 (Homo sapiens, UniProt P10635). The experiment in a line: Inhibition of CYP2D6. In kind it is ADME.
The nature of data set [5]: Metabolic stability in human liver microsomes assessed as clearance per mg of protein. In kind it is ADME, Microsome. Background: Liver microsomes are a subcellular fraction often used to study metabolism.
The nature of data set [6]: Solubility in 10 mM DMSO by lyophilizated solubility assay. Type of data set: physicochemical.
The test system of data set [7] is Salmonella enterica subsp. enterica. The experiment in a line: Toxicity in Salmonella Typhimurium assessed as increase in number of revertant colonies by AMES microsuspension assay. Type of data set: organism-based. Conditions: salmonella enterica subsp. enterica serovar typhimurium.
Data set [8] has as its target Cytochrome P450 2C19 (Homo sapiens, UniProt P33261). The data set is described as follows: Inhibition of CYP2C19. In kind it is ADME.
Data set [9] has as its target Cytochrome P450 3A4 (Homo sapiens, UniProt P08684). The experiment in a line: Inhibition of CYP3A4. In kind it is ADME.
A short description of data set [10]: Genotoxicity in mammalian cells assessed as increase in number of micronucleated cells by micronucleus test. Type of data set: cell-based.
Data set [11] addresses Histamine H2 receptor (Homo sapiens) (UniProt P25021). The experiment in a line: Inhibition of human histamine H2 receptor at 3 uM.
Data set [12] concerns the target Histamine H4 receptor (Homo sapiens) (UniProt Q9H3N8). The data set is described as follows: Inhibition of human histamine H4 receptor at 3 uM.
The target in data set [13] is T1, Histamine H3 receptor. The experiment in a line: Inverse agonist activity at human histamine H3 receptor expressed in CHO cells by [35S]GTPgammaS binding assay. In kind it is functional, cell-based. Background: Binding of GTPγS marks nucleotide exchange on a G protein.
A short description of data set [14]: Metabolic stability in rat liver microsomes assessed as clearance per mg of protein. In kind it is ADME, Microsome.
Data set [15] in a line: Membrane permeability by PAMPA. The note with it: read-out: permeability. In kind it is ADME.
Data set [16] has as its target T2, Cytochrome P450 1A2 (Homo sapiens, UniProt P05177).
T2 sequence (P05177 whole entry): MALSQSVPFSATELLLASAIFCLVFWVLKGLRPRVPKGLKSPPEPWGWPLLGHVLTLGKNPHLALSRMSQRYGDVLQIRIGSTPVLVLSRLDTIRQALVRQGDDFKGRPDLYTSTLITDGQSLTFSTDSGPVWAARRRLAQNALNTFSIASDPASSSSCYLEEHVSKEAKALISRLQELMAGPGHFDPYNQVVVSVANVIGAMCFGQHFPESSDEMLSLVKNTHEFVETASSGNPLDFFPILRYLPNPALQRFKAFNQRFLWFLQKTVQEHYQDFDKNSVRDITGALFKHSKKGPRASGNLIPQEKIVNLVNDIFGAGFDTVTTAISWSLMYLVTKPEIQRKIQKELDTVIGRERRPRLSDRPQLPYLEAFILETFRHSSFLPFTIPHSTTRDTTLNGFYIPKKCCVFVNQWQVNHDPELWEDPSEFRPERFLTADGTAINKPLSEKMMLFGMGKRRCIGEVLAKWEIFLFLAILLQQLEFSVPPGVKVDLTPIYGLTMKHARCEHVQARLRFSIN
The data set is described as follows: Inhibition of CYP1A2. Type of data set: ADME.

For data set [17], the target named is Cytochrome P450 2C9 (Homo sapiens, UniProt P11712). The data set is described as follows: Inhibition of CYP2C9. Type of data set: ADME.
For data set [18], the target named is Histamine H1 receptor (Homo sapiens) (UniProt P35367). The experiment in a line: Inhibition of human histamine H1 receptor at 3 uM.
Data set [19] relates to Phospholipidosis. The experiment in a line: In vitro phospholipidosis in fibroblasts. Type of data set: ADME, cell-based. The note with it: fibroblast.

T1 sequence (Q9Y5N1 whole entry): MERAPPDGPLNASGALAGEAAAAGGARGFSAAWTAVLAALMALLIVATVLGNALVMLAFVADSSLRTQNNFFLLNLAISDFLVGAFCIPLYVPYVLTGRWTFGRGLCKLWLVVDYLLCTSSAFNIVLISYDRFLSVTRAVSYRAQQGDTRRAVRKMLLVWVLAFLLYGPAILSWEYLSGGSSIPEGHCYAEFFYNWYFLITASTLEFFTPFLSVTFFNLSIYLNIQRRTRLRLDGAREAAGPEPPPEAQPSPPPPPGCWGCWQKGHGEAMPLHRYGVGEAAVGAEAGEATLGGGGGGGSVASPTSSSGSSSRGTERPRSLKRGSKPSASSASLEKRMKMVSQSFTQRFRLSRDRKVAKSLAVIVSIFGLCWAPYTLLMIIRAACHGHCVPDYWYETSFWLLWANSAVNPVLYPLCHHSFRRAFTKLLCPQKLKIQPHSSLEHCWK
Sequence of Histamine H2 receptor (Homo sapiens) (P25021 whole entry): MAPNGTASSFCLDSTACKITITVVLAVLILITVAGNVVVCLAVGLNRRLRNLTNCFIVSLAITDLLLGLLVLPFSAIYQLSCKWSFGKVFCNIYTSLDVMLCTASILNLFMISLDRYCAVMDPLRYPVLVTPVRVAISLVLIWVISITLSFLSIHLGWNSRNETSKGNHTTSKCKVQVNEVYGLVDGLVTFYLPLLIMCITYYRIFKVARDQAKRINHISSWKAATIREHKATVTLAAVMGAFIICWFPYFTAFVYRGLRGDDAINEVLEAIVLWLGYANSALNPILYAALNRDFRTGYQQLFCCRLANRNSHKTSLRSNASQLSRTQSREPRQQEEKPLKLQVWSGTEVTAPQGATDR
Sequence of Histamine H4 receptor (Homo sapiens) (Q9H3N8 whole entry): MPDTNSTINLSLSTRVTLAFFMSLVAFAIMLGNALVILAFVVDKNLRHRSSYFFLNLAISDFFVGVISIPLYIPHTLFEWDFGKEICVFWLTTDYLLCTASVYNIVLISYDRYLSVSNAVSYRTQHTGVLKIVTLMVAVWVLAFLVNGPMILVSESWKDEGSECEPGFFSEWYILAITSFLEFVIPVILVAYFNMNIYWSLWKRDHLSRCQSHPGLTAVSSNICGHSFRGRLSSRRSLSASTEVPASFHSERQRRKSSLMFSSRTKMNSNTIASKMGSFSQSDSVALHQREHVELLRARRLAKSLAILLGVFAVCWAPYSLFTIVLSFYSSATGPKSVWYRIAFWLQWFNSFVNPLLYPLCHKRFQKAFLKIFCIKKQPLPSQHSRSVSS
Sequence of Histamine H1 receptor (Homo sapiens) (P35367 whole entry): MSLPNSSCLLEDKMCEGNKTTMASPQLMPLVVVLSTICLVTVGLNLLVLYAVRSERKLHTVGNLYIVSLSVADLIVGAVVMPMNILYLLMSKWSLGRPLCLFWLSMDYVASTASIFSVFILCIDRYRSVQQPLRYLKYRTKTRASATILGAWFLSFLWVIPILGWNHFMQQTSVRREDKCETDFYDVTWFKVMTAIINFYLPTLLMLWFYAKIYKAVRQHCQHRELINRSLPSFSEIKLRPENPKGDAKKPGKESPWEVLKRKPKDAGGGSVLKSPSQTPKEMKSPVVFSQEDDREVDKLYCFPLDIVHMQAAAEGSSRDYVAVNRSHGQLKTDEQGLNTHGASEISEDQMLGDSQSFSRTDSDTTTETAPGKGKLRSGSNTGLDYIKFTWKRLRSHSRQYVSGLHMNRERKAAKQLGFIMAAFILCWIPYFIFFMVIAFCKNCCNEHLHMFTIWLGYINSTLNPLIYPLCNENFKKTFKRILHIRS
Sequence of Cytochrome P450 2C19 (P33261 whole entry): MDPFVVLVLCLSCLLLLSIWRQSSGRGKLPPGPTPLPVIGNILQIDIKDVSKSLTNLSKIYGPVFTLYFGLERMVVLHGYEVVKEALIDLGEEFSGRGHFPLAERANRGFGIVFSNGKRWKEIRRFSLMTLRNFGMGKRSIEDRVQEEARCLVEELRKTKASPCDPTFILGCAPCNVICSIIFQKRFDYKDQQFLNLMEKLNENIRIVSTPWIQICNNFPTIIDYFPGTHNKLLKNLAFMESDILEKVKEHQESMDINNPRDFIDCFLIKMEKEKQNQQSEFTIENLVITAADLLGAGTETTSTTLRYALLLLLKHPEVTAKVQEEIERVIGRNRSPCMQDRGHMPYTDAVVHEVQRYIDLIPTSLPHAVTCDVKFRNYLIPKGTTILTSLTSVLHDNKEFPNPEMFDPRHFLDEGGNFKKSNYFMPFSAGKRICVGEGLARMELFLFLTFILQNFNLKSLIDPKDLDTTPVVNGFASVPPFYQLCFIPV
Sequence of Cytochrome P450 3A4 (P08684 whole entry): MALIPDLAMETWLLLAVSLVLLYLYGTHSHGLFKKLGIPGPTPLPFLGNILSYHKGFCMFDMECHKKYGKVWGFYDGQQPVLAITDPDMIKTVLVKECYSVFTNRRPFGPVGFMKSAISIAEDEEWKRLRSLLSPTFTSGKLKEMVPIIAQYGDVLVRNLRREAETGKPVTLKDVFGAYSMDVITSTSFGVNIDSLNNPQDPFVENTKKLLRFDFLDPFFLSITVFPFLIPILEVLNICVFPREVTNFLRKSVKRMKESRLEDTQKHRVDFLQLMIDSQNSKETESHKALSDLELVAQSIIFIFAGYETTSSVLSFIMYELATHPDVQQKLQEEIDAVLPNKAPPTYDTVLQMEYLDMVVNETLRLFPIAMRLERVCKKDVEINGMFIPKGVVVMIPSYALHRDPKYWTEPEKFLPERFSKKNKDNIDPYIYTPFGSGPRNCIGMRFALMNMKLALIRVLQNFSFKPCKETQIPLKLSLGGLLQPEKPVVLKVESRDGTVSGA
Sequence of Cytochrome P450 2C9 (P11712 whole entry): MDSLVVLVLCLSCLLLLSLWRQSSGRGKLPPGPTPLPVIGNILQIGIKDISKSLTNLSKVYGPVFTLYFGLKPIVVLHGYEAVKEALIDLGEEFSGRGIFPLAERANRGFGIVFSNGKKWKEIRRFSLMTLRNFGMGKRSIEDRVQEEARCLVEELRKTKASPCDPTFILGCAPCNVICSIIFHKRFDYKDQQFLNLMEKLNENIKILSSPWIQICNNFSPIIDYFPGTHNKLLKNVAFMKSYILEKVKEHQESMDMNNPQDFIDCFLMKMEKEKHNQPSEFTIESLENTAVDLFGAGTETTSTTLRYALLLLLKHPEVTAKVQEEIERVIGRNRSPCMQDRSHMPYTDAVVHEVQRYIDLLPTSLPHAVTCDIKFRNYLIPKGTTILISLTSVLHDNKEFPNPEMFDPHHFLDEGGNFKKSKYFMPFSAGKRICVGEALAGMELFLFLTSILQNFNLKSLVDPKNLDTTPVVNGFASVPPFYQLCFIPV
Sequence of Cytochrome P450 2D6 (P10635 whole entry): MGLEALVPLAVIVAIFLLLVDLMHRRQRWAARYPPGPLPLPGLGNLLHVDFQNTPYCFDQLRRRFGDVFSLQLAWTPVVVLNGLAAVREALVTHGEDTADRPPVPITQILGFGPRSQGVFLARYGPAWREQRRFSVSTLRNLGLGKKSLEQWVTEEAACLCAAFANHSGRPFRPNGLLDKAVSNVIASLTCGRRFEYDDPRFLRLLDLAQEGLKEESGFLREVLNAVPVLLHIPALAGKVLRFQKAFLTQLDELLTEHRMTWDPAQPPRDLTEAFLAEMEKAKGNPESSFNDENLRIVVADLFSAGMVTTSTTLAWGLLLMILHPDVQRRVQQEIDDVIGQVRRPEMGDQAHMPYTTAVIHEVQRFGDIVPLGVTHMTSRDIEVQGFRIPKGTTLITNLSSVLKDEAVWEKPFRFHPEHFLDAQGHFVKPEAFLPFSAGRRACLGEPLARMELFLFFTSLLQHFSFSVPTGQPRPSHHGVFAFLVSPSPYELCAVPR

As usually defined, the pKa is the pH at which an ionisable group is half protonated. Low values mean a stronger acid or weaker base, high ones a weaker acid or stronger base. For orientation: Ki means the equilibrium dissociation constant of an inhibitor or competing ligand from its target. Low values mean higher affinity, high ones lower affinity. As for `CC1CCN(C(=O)c2ccc3cc(OC4CCN(C(C)C)C4)ccc3c2)CC1` (stereo not given), the pKa in [1] worked out at 9.4. This compound displayed a Ki in data set [2] of 234 nM.

As for `O=C(c1ccc2cc(OCCCN3CCCCC3)ccc2c1)N1CCC(CO)CC1`, the pKa in data set [1] came out at 9.6. The compound also returned a Ki in data set [2] of 103 nM.

The compound `CC(C)N1CCC(Oc2ccc3nc(C(=O)N4CCC4)ccc3c2)CC1` gave a pKa in data set [1] of 9.5. Also, the affinity in data set [2], expressed as Ki, was 62 nM.

As usually defined, the logD is the decadic logarithm of the distribution of all forms, ionised or not, between an organic phase and buffer at a given pH. For orientation: IC50 means the point on the concentration scale where inhibition reaches its midpoint. High values mean weaker potency in that assay, low ones greater potency in that assay. Broadly, the microsomal CLint is the rate of metabolic loss divided by the concentration. The term solubility denotes how much of the substance goes into solution per volume. By inhibition is commonly meant the change of the read-out against control, counted positive when it falls. By EC50 is commonly meant the concentration at which the effect is half-maximal. Low readings indicate a more potent agent, high ones a less potent agent. Compound `CC1CCN(C(=O)c2ccc3cc(OCCCN4CCCCC4)ccc3c2)CC1` came in with a pH-dependent lipophilicity (logD) in data set [3] of 2.47. Further, the IC50 in [4], in data set [8], in data set [9], in [16] and in data set [17] was above 12000 nM in each case. Further, the results for the microsomal CLint in data set [5] and in [14] were 33 µL/min/mg and 32 µL/min/mg, respectively. Further, in data set [6], the solubility is above 543 µg/mL. Moreover, the Activity result in [7] and in [10] was “Non-toxic” throughout. In [1], this compound returned a pKa of 9.86. The figures for the inhibition in data set [11] and in data set [12] were -0.3% and 0%, respectively. The compound also gave a half-maximal effective concentration (EC50) in data set [13] of 200 nM. Besides, in data set [15], the Papp was 2.6 ×10⁻⁶ cm/s. Moreover, the Ki in data set [2] is 7 nM.

As to `CC(C)CN1CCC(Oc2ccc3cc(C(=O)N4CCC(C)CC4)ccc3c2)CC1`, the inhibition was -4.5% in data set [18], 4.1% in data set [11] and 0% in data set [12]. In [1], this compound registered a pKa of 9.8. The same compound yielded a Ki in data set [2] of 36 nM.

For `CC(C)N1CCC(Oc2ccc3cc(C(=O)N4CCC(CO)CC4)ccc3c2)CC1`, the pKa in data set [1] was determined as 9.6. In addition, the Ki in data set [2] turned out to be 154 nM.

Take `CC(C)N1CCC(Oc2ccc3nc(C(=O)N4CCC[C@H]4C#N)ccc3c2)CC1`: the pKa in data set [1] came out at 9.5. Besides, in data set [2], the Ki amounted to 87 nM.

The compound `CC(C)N1CCC(Oc2ccc3nc(C(=O)N4CCOCC4)ccc3c2)CC1` came in with a pKa in data set [1] of 9.5. In addition, in data set [2], the affinity corresponds to a Ki of 238 nM.

Take `CC1CCN(C(=O)c2ccc3cc(OC4CCN(C(C)C)CC4)ccc3c2)CC1`: the inhibition is 0.9% in data set [18], -8% in data set [11] and 0% in data set [12]. Further, the pKa in data set [1] is 9.6. Besides, affinity in data set [2] was put at a Ki of 34 nM.

Regarding `O=C(c1ccc2cc(OCCCN3CCCCC3)ccc2n1)N1CCC1`, in [1], the pKa came out at 9.4. Affinity in data set [2] was put at a Ki of 119 nM.

`COC1CCN(C(=O)c2ccc3cc(OCCCN4CCCCC4)ccc3c2)CC1`: the pKa in data set [1] worked out at 9.57. The compound further yielded an inhibition constant (Ki) in [2] of 30 nM.

In data set [1], `CC(C)N1CCC(Oc2ccc3cc(C(=O)N4CCCC4C)ccc3c2)CC1` (stereo not given) displayed a pKa of 9.71. Also, affinity in [2] was put at a Ki of 15 nM.

On to `CC1CCN(C(=O)c2ccc3cc(OCCCN4CCOCC4)ccc3c2)CC1`, for which, in data set [1], the pKa was found to be 7.8. The inhibition constant (Ki) in [2] is 2000 nM.

As for `CC1CCN(C(=O)c2ccc3cc(OCCCN4CCCCC4)ccc3n2)CC1`, in data set [1], the pKa worked out at 9.7. Further, in [2], the inhibition constant (Ki) turned out to be 300 nM.

In the case of `CC1CCN(C(=O)c2ccc3cc(OCCC4CCCN4C)ccc3c2)CC1` (stereo not given), the pKa in [1] is 9.9.

Regarding `CC(C)N1CCC(Oc2ccc3cc(C(=O)N4CCOCC4)ccc3c2)CC1`, the inhibition in data set [18] was 1.6%; in [11], -9.9%; in data set [12] it was 0%. Moreover, the pH-dependent lipophilicity (logD) in data set [3] was 0.6. Moreover, the IC50 in data set [4], in data set [8], in data set [9], in data set [16] and in data set [17] was above 41000 nM each time. For the same compound, the intrinsic metabolic clearance (microsomal CLint) came out at 23 µL/min/mg in data set [5] and 3 µL/min/mg in data set [14]. For the same compound, the solubility in data set [6] is above 558 µg/mL. Besides, the Activity entry in data set [7] and in data set [10] was “Non-toxic” each time. The same compound returned a pKa in data set [1] of 9.3. This compound displayed a concentration giving a half-maximal response (EC50) in data set [13] of 17 nM. The Papp in data set [15] turned out to be 2.5 ×10⁻⁶ cm/s. Further, the Phospholipidosis entry in [19] is “Not Active”. Also, the Ki in data set [2] was determined as 40 nM.

Take `COC1CCN(C(=O)c2ccc3cc(OC4CCN(C(C)C)CC4)ccc3c2)CC1`: the pKa in [1] worked out at 9.4. The compound further showed an inhibition constant (Ki) in [2] of 62 nM.

In data set [1], `CC(C)N1[C@@H]2CC(Oc3ccc4nc(C(=O)N5CCOCC5)ccc4c3)CC[C@H]1C2` (stereo not given in full) came in with a pKa of 8.97. Further, the Ki in [2] stood at 30 nM.

Regarding `COC1CCN(C(=O)c2ccc3cc(OC4CCN(C(C)C)CC4)ccc3n2)CC1`, the pKa in [1] turned out to be 9.5. This compound also showed a Ki in [2] of 125 nM.
